The values below come from publication PMC9839694, “Genetic basis of thiaminase I activity in a vertebrate, zebrafish Danio rerio” (Scientific Reports, 2023).

Counter-ions that a name gives are not always drawn.

In assay [1] the target is T1, Paenibacillus thiaminolyticus thiaminase I (WP_087440168) (Paenibacillus thiaminolyticus, UniProt B0FJ10).
T1 construct: gene bcmE; native enzyme in concentrated culture supernatant (strain 8188), and recombinant positive control from synthetic gene in pET52b in E. coli; 42 kDa monomer
T1 sequence (B0FJ10 31-409): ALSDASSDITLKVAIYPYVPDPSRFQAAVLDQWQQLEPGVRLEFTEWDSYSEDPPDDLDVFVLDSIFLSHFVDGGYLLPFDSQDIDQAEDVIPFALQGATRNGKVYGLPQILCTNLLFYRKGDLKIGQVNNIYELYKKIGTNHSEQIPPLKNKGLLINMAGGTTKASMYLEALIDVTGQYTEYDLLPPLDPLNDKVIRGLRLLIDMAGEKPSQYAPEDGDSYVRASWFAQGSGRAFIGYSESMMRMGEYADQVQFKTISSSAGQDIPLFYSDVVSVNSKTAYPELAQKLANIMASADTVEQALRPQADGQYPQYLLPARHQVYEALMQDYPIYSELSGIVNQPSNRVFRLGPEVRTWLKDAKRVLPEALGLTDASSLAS
Put plainly: in-gel thiaminase I activity staining (diazo-coupling) after electrophoresis. Conditions: 0.89 mM thiamine-HCl with a co-substrate, 25 mM sodium phosphate, 37 °C; recombinant positive control. The assay is classed as biochemical.

The target of assay [2] is T2, zebrafish TenA-like thiaminase I (NP_001314821.1) (Danio rerio, UniProt A0A0R4IDF2).
T2 construct: gene teni.1; synthetic gene in pET52b, expressed in E. coli Rosetta 2(DE3)pLysS, soluble lysate fraction; oligomer 25 to 100 kDa native
T2 sequence (A0A0R4IDF2 22-223): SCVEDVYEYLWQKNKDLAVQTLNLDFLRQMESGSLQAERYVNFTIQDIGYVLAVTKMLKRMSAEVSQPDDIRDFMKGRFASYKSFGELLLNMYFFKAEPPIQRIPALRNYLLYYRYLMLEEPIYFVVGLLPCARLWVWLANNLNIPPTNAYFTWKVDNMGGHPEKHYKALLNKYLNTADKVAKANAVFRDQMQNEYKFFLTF
The assay is described as above. The assay is classed as biochemical. The settings on record: 0.89 mM thiamine-HCl with a co-substrate, 25 mM sodium phosphate, 37 °C.

Regarding `Cc1ncc(C[n+]2csc(CCO)c2C)c(N)n1` [thiamine-HCl], the “in-gel thiaminase I activity staining (diazo-coupling) after electrophoresis” value in assay [1] is “stained for activity showing thiamine degradation as clear areas”; in assay [2], “expressed in the soluble fraction of the protein extract and showed thiaminase I activity”.
